In patent publication US20250312309A1, “ALLYL-AND PROPARGYLAMINE-TYPE PHENE[…] T[…] TREATING MEDICAL DISORDERS” (Mind Medicine, Inc., priority 2023, published 2025):
Entries after “also recorded” stand apart in the source; their conditions may differ. Where a name gives a salt, the structure may show the parent alone. Read-outs that look alike come from different tables or passages of the source.

Legend:
[1] = humans; Trachsel et al., 2013; cited from earlier work
[2] = target: T1, human serotonin (5-HT) transporter (hSERT) (Homo sapiens, UniProt P31645); experiment: Serotonin uptake transport inhibition ([3H]5-HT uptake in hSERT-transfected HEK 293 cells); assay type: cell-based; details: screening at 1 μM and 10 μM (n=3), FIG. 9
T1 construct: expressed in transfected cells; host or cells: HEK 293 cells (Invitrogen), stably transfected
Procedure: Serotonin uptake transport inhibition. […] Briefly, cells were cultured in Dulbecco's modified Eagle's medium (DMEM; Gibco, Life Technologies, Zug, Switzerland) with 10% fetal bovine serum (Gibco) and 250 mg/mL Geneticin (Gibco) to 70-90% confluence, detached, and then resuspended (3×10^6 cells/mL) in Krebs-Ringer Bicarbonate Buffer (Sigma-Aldrich, Buchs, Switzerland). The cell suspension (100 μL) was incubated with 25 μL buffer containing the test compounds, vehicle control, or 10 μM fluoxetine (SERT-specific inhibitor) for 10 minutes in a round bottom 96-well plate at room temperature by shaking at 450 rotations per minute on a rotary shaker. To initiate uptake transport, 50 μL of [^3H] […] Thereafter, 100 μL of the cell suspension was transferred into 500 μL microcentrifuge tubes that contained 50 μL of 3 M KOH and 200 μL silicon oil (1:1 mixture of silicon oil types AR 20 and AR 200; Sigma-Aldrich). The tubes were centrifuged for 3 minutes at 16,550 g to transport the cells through the silicone oil into the KOH. The tubes were frozen in liquid nitrogen and the cell pellet was then cut into 6 mL scintillation vials (PerkinElmer, Schwerzenbach, Switzerland) that contained 0.5 mL lysis buffer (0.05 M TRIS-HCl, 50 mM NaCl, 5 mM EDTA, and 1% NP-40 in water). The samples were shaken for 1 hour before the addition of 5 mL scintillation liquid (Ultimagold, Perkin Elmer). Serotonin uptake was quantified by liquid scintillation counting on a Packard Tri-Carb Liquid Scintillation Counter 1900 TR. Non-specific uptake in the presence of fluoxetine was subtracted from the total counts.

human 5-HT2A receptor = target: T2, human 5-HT2A receptor (Homo sapiens, UniProt P28223); experiment: 5-HT2A receptor activation assessment (IP1 accumulation, NIH/3T3 cells); assay type: cell-based; details: for 5-HT2A receptor activation, result in words: FIG. 10 / FIG. 11
T2 construct: expressed in transfected cells; host or cells: NIH/3T3 cells stably expressing the receptor
Procedure: 5-HT2A receptor activation assessment. Activation of the 5-HT2A receptor was assessed by measuring the accumulation of inositol monophosphate 1 (IP1) using the Cisbio IP-One Gq Kit (Cisbio Bioassays SAS, Codolet Cedex, France) according to the manufacturer's protocol. In brief, NIH/3T3 cells stably expressing the human 5-HT2A receptor were seeded at a density of 2,500 cells per well in a 384-well plate in Opti-MEM™ I medium (Gibco, ThermoFisher, Life Technologies Europe B.V., Zug, Switzerland). Then, test compounds were added, and the plate was incubated for 90 minutes at 37° C., followed by 60 minutes incubation with Anti-IP1-Cryptate and IP1-d2 at room temperature. Stimulated IP-1 formation was determined by Homogeneous Time-Resolved Fluorescence (HTRF) measurement on a BioTek Synergy H1 Multimode Reader (Agilent Technologies (Schweiz) AG, Basel, Switzerland) and EC50 values were derived from the concentration-response curves using nonlinear regression.

[3] = target: T1, human serotonin (5-HT) transporter (hSERT); details: read-out: IC50, SERT inhibition (Simmler et al., 2013); literature value in this assay; cited from earlier work
[4] = NIH/3T3 cells expressing human 5-HT2A, FIG. 11, read-out: EC50, 5-HT2A receptor activation (IP1 formation)
[5] = values for hydrochloride salts, read-out: IC50 values at the 5-HT2A receptor

T2 sequence (P28223 whole entry): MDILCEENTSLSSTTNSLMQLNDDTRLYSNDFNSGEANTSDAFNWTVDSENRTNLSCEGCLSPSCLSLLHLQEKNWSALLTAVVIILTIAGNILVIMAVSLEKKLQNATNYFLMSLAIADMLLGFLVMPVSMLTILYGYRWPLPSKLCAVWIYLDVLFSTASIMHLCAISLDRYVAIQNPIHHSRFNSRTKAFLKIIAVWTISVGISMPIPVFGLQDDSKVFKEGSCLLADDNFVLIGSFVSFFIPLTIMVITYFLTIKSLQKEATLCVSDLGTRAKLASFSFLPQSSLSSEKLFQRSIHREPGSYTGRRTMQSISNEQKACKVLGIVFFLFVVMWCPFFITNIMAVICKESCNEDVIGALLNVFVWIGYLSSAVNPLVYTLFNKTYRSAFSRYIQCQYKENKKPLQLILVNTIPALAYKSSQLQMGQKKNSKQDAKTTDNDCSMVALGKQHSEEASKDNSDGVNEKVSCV
T1 sequence (P31645 whole entry): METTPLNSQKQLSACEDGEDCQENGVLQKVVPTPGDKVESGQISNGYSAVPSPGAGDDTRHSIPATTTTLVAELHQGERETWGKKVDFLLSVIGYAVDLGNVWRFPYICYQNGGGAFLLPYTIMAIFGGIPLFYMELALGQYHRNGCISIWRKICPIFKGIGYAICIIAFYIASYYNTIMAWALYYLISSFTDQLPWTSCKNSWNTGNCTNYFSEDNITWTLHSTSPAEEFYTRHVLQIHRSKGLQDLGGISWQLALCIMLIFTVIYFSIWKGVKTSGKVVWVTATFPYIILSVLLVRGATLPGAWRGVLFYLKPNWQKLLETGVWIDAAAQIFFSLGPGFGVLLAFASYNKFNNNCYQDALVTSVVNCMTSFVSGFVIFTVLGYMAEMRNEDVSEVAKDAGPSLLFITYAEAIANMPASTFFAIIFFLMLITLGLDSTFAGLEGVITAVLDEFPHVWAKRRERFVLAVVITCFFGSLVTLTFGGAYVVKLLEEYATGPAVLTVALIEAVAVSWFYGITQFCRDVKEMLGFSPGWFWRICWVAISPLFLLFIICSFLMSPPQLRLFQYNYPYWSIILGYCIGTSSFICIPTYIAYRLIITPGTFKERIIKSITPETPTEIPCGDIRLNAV

## CCC(N)Cc1cc(OC)c(Br)cc1OC (stereo not shown) [4C-B]
[1]
  active dose range (mixed psychedelic-energizing): 50 to 80 mg

## C=CC(N)Cc1ccc2c(c1)OCO2.Cl (stereo not shown) [DH-BDB, 1-(1,3-Benzodioxol-5-yl) but-3-en-2-amine hydrochloride]
[2]
  IC50: 1 to 10 µM
Human 5-HT2A receptor
  5-HT2A receptor activation, result in words: weaker activation efficacy

## C#CC(N)Cc1ccc2c(c1)OCO2 (stereo not shown) [DDH-BDB, 1-(1,3-Benzodioxol-5-yl)but-3-yn-2-amine hydrochloride]
[2]
  IC50: > 10 µM

## C=CC(Cc1ccc2c(c1)OCO2)NC.Cl (stereo not shown) [DH-MBDB, N-Methyl-1-(1,3-benzodioxol-5-yl) but-3-en-2-amine hydrochloride]
[2]
  IC50: 1 to 10 µM
Human 5-HT2A receptor
  5-HT2A receptor activation, result in words: weaker activation efficacy

## C=CC(N)Cc1cc(OC)c(Br)cc1OC.Cl (stereo not shown) [DH-4C-B, 1-(4-Bromo-2,5-dimethoxyphenyl)but-3-en-2-amine hydrochloride]
[2]
  IC50: > 10 µM
Human 5-HT2A receptor; hydrochloride
  5-HT2A receptor activation, result in words: fully activated; also recorded: potent activity
Human 5-HT2A receptor; [4]
  EC50: 0.0221 µM
Human 5-HT2A receptor; [5]
  EC50: 0.0221 µM

## CNC(C)Cc1ccc2c(c1)OCO2 (stereo not shown) [MDMA, 3,4-Methylenedioxymethamphetamine]
[3]
  IC50: ~1.4 µM

## 1-(Indol-3-yl) but-3-en-2-amine hemifumarate [DH-α-ET]
[2]; read-out: IC50, inhibition of 5-HT uptake (SERT)
  IC50: < 1 µM
[2]
  IC50, inhibition of 5-HT uptake (SERT): sub-micromolar
Human 5-HT2A receptor; at 10 μM
  efficacy at the 5-HT2A receptor, percentage of the maximal 5-HT response: ~50%

## C=C(c1ccc2c(c1)OCO2)C(C)NC.Cl (stereo not shown) [BME-MDMA, 2-(1,3-Benzodioxol-5-yl)-3-(methylamino) butene hydrochloride]
Human 5-HT2A receptor
  5-HT2A receptor activation, result in words: weaker activation efficacy

## C#CC(N)Cc1cc(OC)c(Br)cc1OC.Cl (stereo not shown) [DDH-4C-B, 1-(4-Bromo-2,5-dimethoxyphenyl)but-3-yn-2-amine hydrochloride]
Human 5-HT2A receptor
  5-HT2A receptor activation, result in words: fully activated
Human 5-HT2A receptor; [4]
  EC50: 0.0407 µM
Human 5-HT2A receptor; [5]
  EC50: 0.0407 µM

## C#CC(Cc1ccc2c(c1)OCO2)NC (stereo not shown) [DDH-MBDB, N-Methyl-1-(1,3-benzodioxol-5-yl)but-3-yn-2-amine hydrochloride]
[2]
  IC50: > 10 µM
